The target of one data set is T1, LYN (Homo sapiens, UniProt P07948).
T1 construct: purchased Reaction Biology Corp. (Kinase HotSpot)
Briefly: Kinase panel screening 1 μM. Format: biochemical. Conditions: read-out: enzymatic inhibition LYN.

Another data set addresses T2, c-Kit (Homo sapiens, UniProt P10721).
T2 construct: purchased Reaction Biology Corp. (Kinase HotSpot)
Briefly: Kinase panel screening 1 μM. The class given is biochemical. The following applies: read-out: enzymatic inhibition c-Kit.

The next data set addresses T3, KDR/VEGFR2 (Homo sapiens, UniProt P35968).
T3 construct: purchased Reaction Biology Corp. (Kinase HotSpot)
The data set can be described thus: Kinase panel screening 1 μM. The class given is biochemical. Conditions: read-out: enzymatic inhibition KDR/VEGFR2.

In another data set the target is T4, ROS/ROS1 (Homo sapiens, UniProt P08922).
T4 construct: purchased Reaction Biology Corp. (Kinase HotSpot)
Briefly: Kinase panel screening 1 μM. The class given is biochemical. The following applies: read-out: enzymatic inhibition ROS/ROS1.

A further data set concerns the target T5, PDK1/PDHK1 (Homo sapiens, UniProt Q15118).
T5 construct: purchased Reaction Biology Corp. (Kinase HotSpot)
Briefly: Kinase panel screening 1 μM. Format: biochemical. The following applies: read-out: enzymatic inhibition PDK1/PDHK1.

A further data set addresses T6, CDK1/cyclin A (Homo sapiens, UniProt P06493).
T6 construct: purchased Reaction Biology Corp. (Kinase HotSpot)
The data set can be described thus: Kinase panel screening 1 μM. The class given is biochemical. Conditions: read-out: enzymatic inhibition CDK1/cyclin A.

Another data set deals with T7, FMS (Homo sapiens, UniProt P07333).
T7 construct: purchased Reaction Biology Corp. (Kinase HotSpot)
Briefly: Kinase panel screening 1 μM. The class given is biochemical. The following applies: read-out: enzymatic inhibition FMS.

In another data set the target is T8, CAMKK1 (Homo sapiens, UniProt Q8N5S9).
T8 construct: purchased Reaction Biology Corp. (Kinase HotSpot)
Briefly: Kinase panel screening 1 μM. The following applies: read-out: enzymatic inhibition CAMKK1. Format: biochemical.

The next data set has as its target T9, ABL1 (Homo sapiens, UniProt P00519).
T9 construct: purchased Reaction Biology Corp. (Kinase HotSpot)
Briefly: Kinase panel screening 1 μM. Conditions: read-out: enzymatic inhibition ABL1. The class given is biochemical.

Data set [1] concerns primary rat cortical neuron. Briefly: Cell viability (MTT) from Aβ-induced neurotoxicity. Format: cell-based. The following applies: for Neuroprotection: Aβ-induced primary rat cortical neuronal death. The text has this: To establish whether the derived selective JNK3 inhibitor actually has the ability to protect neurons from amyloid β-induced neuronal cell death, which is known as the pathogenesis of Alzheimer’s disease, we performed cytotoxicity experiments using Aβ 42, which is known as the most toxic fragment of the amyloid protein. The amyloid-β is known to mainly cause apoptosis during cell death, so it was confirmed whether the derived selective JNK3 inhibitors affect the activation (cleavage) of caspase-3, which are apoptosis-related signaling substances. […] This means that selective JNK3 inhibitors can inhibit apoptosis signaling by amyloid-β in neurons, thereby inhibiting apoptosis. Additionally, we confirmed that JNK activation was induced by amyloid-β in neurons, and the derived selective JNK3 inhibitors could inhibit JNK activation induced by amyloid-β. […] Then, the experiments for JNK3 inhibitors’ effect on the viability of neurons were conducted for five 6-dihydroxy benzimidazoles (35a-35e) by comparing it with previously published resveratrol as a positive control. On the 5th day of rat primary cortical neuron differentiation, each compound was pre-treated for 90 min and then treated with 10 μM Aβ 42 (HIFP-treated) for 24 or 48 h, and cell viability was measured by MTT assay.
In initial experiments, rat hippocampal cells grown in serum-free neurobasal media containing B27 supplements at day 6 were treated with different concentrations of Aβ1–42 or Aβ1–40 for 24 h and then the cell viability was measured by colorimetric MTT assay. Aggregated Aβ1–42 and Aβ1–40 caused up to 40–60% cell death at concentrations ranging from […]. […] Resveratrol was active against various amyloid-related peptides including Aβ1–42, the most neurotoxic amyloid derivative present in the AD brain. […] Primary Rat Cortex Neurons, Sprague Dawley (Gibco, A36512, Fisher Scientific, Göteborg, Sweden), were cultured in Neurobasal™ Plus culture medium (Gibco, A3582901 Fisher Scientific, Göteborg, Sweden), supplemented with B-27™ Supplement (Gibco, A3582801 Fisher Scientific, Göteborg, Sweden) and 0.5 mM GlutaMAX™ Supplement (Gibco, 35050061 Fisher Scientific, Göteborg, Sweden) at 37 °C in a humidified 5% CO2 atmosphere. We plated –2 × 10^5 live cells per well in a poly-D-lysine/laminin coated 24-well plate. For neural differentiation, half of the medium was replaced with fresh complete medium every third day. On day 6, we removed half the volume of media from the culture plate, added an equal amount of complete culture media containing test compounds or vehicle to each well, and incubated them for 90 min at 37 °C and 5% CO2. Immediately prior to use, amyloid β-Protein (1–42) (HFIP-treated) (Bachem, 4090148.0100) was dissolved in 1% NH4OH, further diluted with culture medium, and added into the plates to a final concentration of 10 μM. Cells were incubated for 24 h with vehicle control or test compounds in the presence or absence of Aβ42. Cell viability was measured using the MTT [3-(4, 5-dimethylthiazol-2-yl)-2,5-diphenyltetrazolium bromide] assay. MTT solution was added into each well at a final concentration of 0.5 mg/mL, and cells were incubated at 37 °C for 4 h. The absorbance was detected at 540 nm (reference 650 nm) with a microplate reader. All results were normalized to OD values measured from the vehicle control (DMSO). […]
Primary Rat Cortex Neurons, Sprague Dawley (Gibco, A36512) were cultured in Neurobasal™ Plus culture medium (Gibco, A3582901), supplemented with B-27™ Supplement (Gibco, A3582801) and 0.5mM GlutaMAX™ Supplement (Gibco, 35050061) at 37 °C in a humidified 5% CO2 atmosphere. Plate ~2 × 10^5 live cells per well in a poly-D-lysine/laminin coated 24-well plate. For neural differentiation, half of the medium was replaced with fresh complete medium every third day. On day 6, remove half the volume of media from the culture plate and add an equal amount of complete culture media […]

The test system of the next data set is over 38 kinases. Briefly: Kinase panel screening, single dose 1 μM, whole panel. Format: biochemical. The following applies: duplicate.
The next data set has as its target T10, ALK (Homo sapiens, UniProt Q9UM73).
T10 construct: purchased Reaction Biology Corp. (Kinase HotSpot)
The data set can be described thus: Kinase panel screening 1 μM. Format: biochemical. Conditions: read-out: enzymatic inhibition ALK.

The target of the next data set is T11, ERK1 (Homo sapiens, UniProt P27361).
T11 construct: purchased Reaction Biology Corp. (Kinase HotSpot)
Briefly: Kinase panel screening 1 μM. The class given is biochemical. The following applies: read-out: enzymatic inhibition ERK1.

In a further data set the target is T12, AKT1 (Homo sapiens, UniProt P31749).
T12 construct: purchased Reaction Biology Corp. (Kinase HotSpot)
The data set can be described thus: Kinase panel screening 1 μM. Format: biochemical. The following applies: read-out: enzymatic inhibition AKT1.

The target in the next data set is T13, Aurora A (Homo sapiens, UniProt O14965).
T13 construct: purchased Reaction Biology Corp. (Kinase HotSpot)
The data set can be described thus: Kinase panel screening 1 μM. Format: biochemical. The following applies: read-out: enzymatic inhibition Aurora A.

Another data set has as its target T14, EGFR (Homo sapiens, UniProt P00533).
T14 construct: purchased Reaction Biology Corp. (Kinase HotSpot)
Briefly: Kinase panel screening 1 μM. Format: biochemical. The following applies: read-out: enzymatic inhibition EGFR.

Another data set concerns the target T15, BTK (Homo sapiens, UniProt Q06187).
T15 construct: purchased Reaction Biology Corp. (Kinase HotSpot)
The data set can be described thus: Kinase panel screening 1 μM. Format: biochemical. Conditions: read-out: enzymatic inhibition BTK.

The target of another data set is T16, BRAF (V599E) (Homo sapiens, UniProt P15056, V600E).
T16 construct: purchased Reaction Biology Corp. (Kinase HotSpot)
The data set can be described thus: Kinase panel screening 1 μM. The class given is biochemical. The following applies: read-out: enzymatic inhibition BRAF (V599E).

T9 sequence (P00519 whole entry): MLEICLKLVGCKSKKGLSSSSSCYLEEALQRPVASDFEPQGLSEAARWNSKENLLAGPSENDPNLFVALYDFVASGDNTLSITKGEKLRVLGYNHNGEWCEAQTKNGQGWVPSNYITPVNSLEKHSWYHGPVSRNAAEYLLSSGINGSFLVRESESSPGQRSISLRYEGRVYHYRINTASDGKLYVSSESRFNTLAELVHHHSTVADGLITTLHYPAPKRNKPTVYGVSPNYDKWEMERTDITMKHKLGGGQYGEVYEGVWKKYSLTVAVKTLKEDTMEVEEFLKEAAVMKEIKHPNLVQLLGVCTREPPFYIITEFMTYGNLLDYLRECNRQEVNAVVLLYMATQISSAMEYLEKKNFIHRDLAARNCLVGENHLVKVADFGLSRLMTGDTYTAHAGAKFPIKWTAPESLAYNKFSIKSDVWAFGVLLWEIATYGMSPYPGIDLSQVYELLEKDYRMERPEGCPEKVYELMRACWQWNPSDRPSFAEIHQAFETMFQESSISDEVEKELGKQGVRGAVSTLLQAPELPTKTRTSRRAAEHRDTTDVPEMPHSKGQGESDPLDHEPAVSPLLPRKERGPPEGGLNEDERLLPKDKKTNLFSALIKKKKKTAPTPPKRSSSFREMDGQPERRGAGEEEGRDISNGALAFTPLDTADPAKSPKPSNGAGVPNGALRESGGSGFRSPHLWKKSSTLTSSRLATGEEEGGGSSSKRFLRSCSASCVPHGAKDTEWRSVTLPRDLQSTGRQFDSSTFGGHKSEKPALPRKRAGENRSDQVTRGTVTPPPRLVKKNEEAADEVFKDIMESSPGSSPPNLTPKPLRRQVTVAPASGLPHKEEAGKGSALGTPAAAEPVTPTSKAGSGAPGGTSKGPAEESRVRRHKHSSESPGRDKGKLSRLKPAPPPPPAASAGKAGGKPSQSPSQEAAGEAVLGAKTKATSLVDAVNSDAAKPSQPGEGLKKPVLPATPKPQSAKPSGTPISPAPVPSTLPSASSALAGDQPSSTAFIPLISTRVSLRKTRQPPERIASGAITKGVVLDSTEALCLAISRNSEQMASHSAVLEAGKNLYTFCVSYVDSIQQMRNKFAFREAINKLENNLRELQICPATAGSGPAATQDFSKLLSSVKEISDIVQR
T8 sequence (Q8N5S9 whole entry): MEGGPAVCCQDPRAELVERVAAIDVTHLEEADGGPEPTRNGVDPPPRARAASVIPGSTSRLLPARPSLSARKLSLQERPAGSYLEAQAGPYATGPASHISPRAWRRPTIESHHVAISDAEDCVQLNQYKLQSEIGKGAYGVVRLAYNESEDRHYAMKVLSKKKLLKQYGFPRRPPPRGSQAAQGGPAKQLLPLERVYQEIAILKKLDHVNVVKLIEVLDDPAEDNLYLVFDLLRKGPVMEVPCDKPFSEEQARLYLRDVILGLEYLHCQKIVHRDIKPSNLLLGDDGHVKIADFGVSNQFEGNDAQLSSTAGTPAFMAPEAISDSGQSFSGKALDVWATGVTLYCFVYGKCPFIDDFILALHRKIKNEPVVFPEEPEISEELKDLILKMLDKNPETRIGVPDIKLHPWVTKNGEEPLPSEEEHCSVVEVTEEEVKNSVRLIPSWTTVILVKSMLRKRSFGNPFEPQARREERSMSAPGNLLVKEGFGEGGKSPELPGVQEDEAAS
T7 sequence (P07333 20-972): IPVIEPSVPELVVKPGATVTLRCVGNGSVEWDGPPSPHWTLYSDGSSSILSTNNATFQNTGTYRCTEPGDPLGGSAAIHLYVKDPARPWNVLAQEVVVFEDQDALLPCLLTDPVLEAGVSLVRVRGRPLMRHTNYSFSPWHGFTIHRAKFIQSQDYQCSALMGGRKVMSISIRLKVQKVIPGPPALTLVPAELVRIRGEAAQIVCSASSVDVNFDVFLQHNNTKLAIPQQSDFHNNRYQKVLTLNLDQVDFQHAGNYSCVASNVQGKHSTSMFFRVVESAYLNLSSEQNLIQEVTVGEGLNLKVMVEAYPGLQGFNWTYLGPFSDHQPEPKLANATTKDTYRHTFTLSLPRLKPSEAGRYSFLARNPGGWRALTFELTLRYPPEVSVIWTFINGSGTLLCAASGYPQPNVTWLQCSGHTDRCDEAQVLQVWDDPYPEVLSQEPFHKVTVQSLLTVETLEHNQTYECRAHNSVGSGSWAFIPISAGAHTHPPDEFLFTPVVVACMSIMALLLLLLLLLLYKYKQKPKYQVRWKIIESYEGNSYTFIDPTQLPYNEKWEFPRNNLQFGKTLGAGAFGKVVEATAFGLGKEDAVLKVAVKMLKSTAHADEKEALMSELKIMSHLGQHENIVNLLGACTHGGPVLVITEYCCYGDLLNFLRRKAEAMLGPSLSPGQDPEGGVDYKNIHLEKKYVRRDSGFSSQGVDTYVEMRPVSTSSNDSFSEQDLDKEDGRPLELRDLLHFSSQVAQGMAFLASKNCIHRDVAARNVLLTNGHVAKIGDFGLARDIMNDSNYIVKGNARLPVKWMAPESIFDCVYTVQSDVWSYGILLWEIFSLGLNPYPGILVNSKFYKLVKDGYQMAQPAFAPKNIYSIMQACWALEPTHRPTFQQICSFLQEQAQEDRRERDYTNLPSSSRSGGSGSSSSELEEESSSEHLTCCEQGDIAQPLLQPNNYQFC
T15 sequence (Q06187 whole entry): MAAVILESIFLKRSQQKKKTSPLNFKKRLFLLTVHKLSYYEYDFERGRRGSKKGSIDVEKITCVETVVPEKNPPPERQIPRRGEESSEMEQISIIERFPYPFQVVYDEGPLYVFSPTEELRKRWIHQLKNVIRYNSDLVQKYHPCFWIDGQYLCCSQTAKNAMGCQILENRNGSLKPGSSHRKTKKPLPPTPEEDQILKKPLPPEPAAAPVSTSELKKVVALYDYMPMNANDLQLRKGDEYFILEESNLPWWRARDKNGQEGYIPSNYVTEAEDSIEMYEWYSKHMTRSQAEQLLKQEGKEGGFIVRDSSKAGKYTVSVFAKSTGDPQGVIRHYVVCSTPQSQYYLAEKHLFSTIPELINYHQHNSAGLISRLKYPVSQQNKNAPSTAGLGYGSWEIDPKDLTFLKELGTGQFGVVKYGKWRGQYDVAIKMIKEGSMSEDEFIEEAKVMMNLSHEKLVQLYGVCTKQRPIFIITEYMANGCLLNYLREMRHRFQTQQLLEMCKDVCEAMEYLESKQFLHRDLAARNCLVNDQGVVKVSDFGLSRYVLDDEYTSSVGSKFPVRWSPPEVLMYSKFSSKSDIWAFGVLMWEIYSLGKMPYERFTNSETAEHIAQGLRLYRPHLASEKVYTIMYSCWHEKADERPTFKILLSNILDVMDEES
T3 sequence (P35968 20-1356): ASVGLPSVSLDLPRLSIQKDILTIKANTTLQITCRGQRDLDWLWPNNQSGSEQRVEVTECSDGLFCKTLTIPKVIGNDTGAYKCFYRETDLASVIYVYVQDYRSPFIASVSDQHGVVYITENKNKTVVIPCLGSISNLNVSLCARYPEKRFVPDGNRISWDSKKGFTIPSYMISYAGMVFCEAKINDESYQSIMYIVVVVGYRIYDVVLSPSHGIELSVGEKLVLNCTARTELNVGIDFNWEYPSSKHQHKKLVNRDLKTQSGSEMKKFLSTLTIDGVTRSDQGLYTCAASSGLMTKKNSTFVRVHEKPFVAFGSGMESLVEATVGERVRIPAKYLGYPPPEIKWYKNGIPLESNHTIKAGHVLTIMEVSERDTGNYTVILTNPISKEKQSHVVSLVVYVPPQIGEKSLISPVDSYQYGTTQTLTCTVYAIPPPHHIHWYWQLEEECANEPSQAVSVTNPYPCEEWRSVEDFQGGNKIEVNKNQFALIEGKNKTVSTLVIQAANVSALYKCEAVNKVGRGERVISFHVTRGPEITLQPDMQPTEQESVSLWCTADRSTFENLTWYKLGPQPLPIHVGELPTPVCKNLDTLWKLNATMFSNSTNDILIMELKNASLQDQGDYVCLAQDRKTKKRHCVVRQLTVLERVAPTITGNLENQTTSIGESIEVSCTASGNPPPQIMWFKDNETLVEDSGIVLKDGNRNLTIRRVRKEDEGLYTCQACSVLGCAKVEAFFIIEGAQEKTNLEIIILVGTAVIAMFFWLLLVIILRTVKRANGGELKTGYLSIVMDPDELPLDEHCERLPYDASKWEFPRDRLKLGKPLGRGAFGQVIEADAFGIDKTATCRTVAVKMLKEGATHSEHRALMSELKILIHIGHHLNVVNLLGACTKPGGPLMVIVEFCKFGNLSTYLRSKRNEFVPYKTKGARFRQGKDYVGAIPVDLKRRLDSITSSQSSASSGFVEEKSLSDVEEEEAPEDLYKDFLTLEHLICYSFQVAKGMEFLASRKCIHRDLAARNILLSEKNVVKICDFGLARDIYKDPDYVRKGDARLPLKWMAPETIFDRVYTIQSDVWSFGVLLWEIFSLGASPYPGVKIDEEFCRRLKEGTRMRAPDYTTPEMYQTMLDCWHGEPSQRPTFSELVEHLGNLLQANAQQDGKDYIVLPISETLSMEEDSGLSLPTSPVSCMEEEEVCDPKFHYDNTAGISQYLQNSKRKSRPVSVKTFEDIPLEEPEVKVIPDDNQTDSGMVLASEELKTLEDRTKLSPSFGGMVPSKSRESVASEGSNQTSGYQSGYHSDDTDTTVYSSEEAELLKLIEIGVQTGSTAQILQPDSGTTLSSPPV
T11 sequence (P27361 whole entry): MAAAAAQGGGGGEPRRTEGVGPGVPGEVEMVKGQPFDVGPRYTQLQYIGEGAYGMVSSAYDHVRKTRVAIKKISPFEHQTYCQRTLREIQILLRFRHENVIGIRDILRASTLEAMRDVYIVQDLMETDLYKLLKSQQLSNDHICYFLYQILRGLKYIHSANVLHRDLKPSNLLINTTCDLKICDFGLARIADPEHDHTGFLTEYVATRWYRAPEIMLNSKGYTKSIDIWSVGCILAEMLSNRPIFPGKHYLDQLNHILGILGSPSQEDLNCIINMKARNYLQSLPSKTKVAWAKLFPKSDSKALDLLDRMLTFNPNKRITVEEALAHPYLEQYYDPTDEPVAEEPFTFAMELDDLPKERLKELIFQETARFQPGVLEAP

On to `O=C(C1CC1)N1CCC[C@H](Nc2nccc(-n3c(-c4ccc5c(c4)OCCO5)nc4cc(O)c(O)cc43)n2)C1` [35b, (S)-Cyclopropyl(3-((4-(2-(2,3-dihydrobenzo[b][1,4]dioxin-6-yl)-5,6-dihydroxy-1H-benzo[d]imidazol-1-yl)pyrimidin-2-yl)amino)piperidin-1-yl)methanone], for which the inhibition at 1 µM was determined as 10.8% on LYN; 0% at c-Kit; 5.49% at KDR/VEGFR2; 0% at ROS/ROS1; 0% on PDK1/PDHK1; 0% at CDK1/cyclin A. For the same molecule, the inhibition at 1 µM at FMS was 8.11%; on CAMKK1, 0%; at ABL1, 20.5%; on ALK, 12.5%; at ERK1 it was 0%; at AKT1 it was 0%. The inhibition at 1 µM on Aurora A is 25.6%; at EGFR, 0%; at BTK, 9.53%; on BRAF (V599E), 0%. Moreover, the Neuroprotection in data set [1] is 95.7%; in [1] (listed as Present report) it was more than 95.7 ± 2.9%. In [1] (pre-treated 90 min, then 10 μM Aβ42, MTT, normalized to vehicle control (DMSO), compound concentration not given), the “Cell viability, Mean” value is recorded as 95.7 ± 2.9%. Also, the “inhibition activity for most other kinases” value with over 38 kinases is recorded as “less than 15%”.

(Values after PMC8539420, “Discovery of a Potent and Selective JNK3 Inhibitor with Neuroprotective Effect Against Amyloid β-Induced Neurotoxicity in Primary Rat Neurons” (International Journal of Molecular Sciences, 2021).)
